In article PMC6009956, “Design, synthesis and biological activity of N^4-phenylsubstituted-7H-pyrrolo[2,3-d]pyrimidin-4-amines as dual inhibitors of aurora kinase A and epidermal growth factor receptor kinase” (Journal of Enzyme Inhibition and Medicinal Chemistry, 2017):
Read-outs that look alike come from different tables or passages of the source.

Tests used:
aurora A kinase (AURKA) = biological target: T1, aurora A kinase (AURKA) (Homo sapiens, UniProt O14965); assay: ADP-Glo kinase assay, Aurora A; type: biochemical
T1 construct: purchased BPS Bioscience (assay run externally by the vendor)
T1 sequence (O14965 1-403): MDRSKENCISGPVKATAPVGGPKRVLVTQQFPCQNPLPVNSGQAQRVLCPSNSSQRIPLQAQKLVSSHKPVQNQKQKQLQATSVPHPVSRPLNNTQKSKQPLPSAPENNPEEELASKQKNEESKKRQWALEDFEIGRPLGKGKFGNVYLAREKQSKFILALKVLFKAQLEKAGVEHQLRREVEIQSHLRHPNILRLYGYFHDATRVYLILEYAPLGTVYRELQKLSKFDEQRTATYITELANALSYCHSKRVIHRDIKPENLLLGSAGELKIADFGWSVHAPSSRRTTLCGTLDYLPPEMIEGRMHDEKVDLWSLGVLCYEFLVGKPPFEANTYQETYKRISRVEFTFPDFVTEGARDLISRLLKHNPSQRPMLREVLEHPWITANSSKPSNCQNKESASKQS

EGFR = EGFR (Homo sapiens, UniProt P00533); assay: ADP-Glo kinase assay, EGFR; type: biochemical; design: purchased BPS Bioscience (assay run externally by the vendor)
Chain of EGFR (P00533 25-1210): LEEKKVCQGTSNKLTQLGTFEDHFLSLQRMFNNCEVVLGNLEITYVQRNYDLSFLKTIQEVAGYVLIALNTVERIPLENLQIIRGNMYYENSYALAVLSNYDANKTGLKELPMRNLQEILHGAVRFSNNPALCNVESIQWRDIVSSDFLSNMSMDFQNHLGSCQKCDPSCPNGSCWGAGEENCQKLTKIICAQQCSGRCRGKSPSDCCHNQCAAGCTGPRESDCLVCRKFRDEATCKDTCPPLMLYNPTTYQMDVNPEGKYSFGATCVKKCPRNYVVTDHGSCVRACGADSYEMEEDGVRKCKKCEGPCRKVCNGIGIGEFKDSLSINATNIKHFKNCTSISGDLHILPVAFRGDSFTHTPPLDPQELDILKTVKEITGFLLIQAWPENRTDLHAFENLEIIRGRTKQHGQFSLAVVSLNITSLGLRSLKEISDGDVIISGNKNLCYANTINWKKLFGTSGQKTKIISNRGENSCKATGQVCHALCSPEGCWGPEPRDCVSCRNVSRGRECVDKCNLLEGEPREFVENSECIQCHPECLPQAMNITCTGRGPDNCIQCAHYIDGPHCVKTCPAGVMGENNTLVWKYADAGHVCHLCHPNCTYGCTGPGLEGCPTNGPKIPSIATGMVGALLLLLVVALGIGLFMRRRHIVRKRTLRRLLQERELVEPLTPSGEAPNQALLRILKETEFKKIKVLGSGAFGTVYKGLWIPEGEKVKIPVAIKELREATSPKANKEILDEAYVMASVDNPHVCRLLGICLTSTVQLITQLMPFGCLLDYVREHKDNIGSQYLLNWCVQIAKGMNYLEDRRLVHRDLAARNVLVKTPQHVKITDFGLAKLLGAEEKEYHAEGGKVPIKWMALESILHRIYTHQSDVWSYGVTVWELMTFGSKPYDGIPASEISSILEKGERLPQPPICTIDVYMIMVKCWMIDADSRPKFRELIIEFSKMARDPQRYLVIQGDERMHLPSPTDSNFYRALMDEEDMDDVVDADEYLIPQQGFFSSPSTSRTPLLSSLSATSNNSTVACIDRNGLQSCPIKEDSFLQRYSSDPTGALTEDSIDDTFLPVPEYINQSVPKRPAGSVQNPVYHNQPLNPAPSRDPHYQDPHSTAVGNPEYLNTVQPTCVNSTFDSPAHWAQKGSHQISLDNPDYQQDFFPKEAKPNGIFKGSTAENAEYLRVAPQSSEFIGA

COc1ccc(Nc2ncnc3[nH]ccc23)cc1 [Compound 6, N^4-(4-methoxyphenyl)-7H-pyrrolo[2,3-d]pyrimidine-4-amine]
IC50 (aurora A kinase (AURKA); 10 µM ATP, triplicate, read-out: AURKA IC50 ± SD): 6.68 ± 0.54 µM
IC50 (aurora A kinase (AURKA); 10 µM ATP/0.2 mg/ml Kemptide, read-out: Aurora A IC50 (dose-response curve, supplement)): 6.7 µM
Aurora A % Activity Set1 (aurora A kinase (AURKA); Log[nM] 0): 104%
Aurora A % Activity Set2 (aurora A kinase (AURKA); Log[nM] 0): 94%
Aurora A % Activity Set3 (aurora A kinase (AURKA); Log[nM] 0): 88%
Aurora A % Activity Set1 (aurora A kinase (AURKA); Log[nM] 1.0): 95%
Aurora A % Activity Set2 (aurora A kinase (AURKA); Log[nM] 1.0): 89%
Aurora A % Activity Set3 (aurora A kinase (AURKA); Log[nM] 1.0): 91%
Aurora A % Activity Set1 (aurora A kinase (AURKA); Log[nM] 1.5): 111%
Aurora A % Activity Set2 (aurora A kinase (AURKA); Log[nM] 1.5): 100%
Aurora A % Activity Set3 (aurora A kinase (AURKA); Log[nM] 1.5): 110%
Aurora A % Activity Set1 (aurora A kinase (AURKA); Log[nM] 2.0): 100%
Aurora A % Activity Set2 (aurora A kinase (AURKA); Log[nM] 2.0): 95%
Aurora A % Activity Set3 (aurora A kinase (AURKA); Log[nM] 2.0): 96%
Aurora A % Activity Set1 (aurora A kinase (AURKA); Log[nM] 2.5): 108%
Aurora A % Activity Set2 (aurora A kinase (AURKA); Log[nM] 2.5): 100%
Aurora A % Activity Set3 (aurora A kinase (AURKA); Log[nM] 2.5): 106%
Aurora A % Activity Set1 (aurora A kinase (AURKA); Log[nM] 3.0): 88%
Aurora A % Activity Set2 (aurora A kinase (AURKA); Log[nM] 3.0): 91%
Aurora A % Activity Set3 (aurora A kinase (AURKA); Log[nM] 3.0): 84%
Aurora A % Activity Set1 (aurora A kinase (AURKA); Log[nM] 3.5): 86%
Aurora A % Activity Set2 (aurora A kinase (AURKA); Log[nM] 3.5): 80%
Aurora A % Activity Set3 (aurora A kinase (AURKA); Log[nM] 3.5): 76%
Aurora A % Activity Set1 (aurora A kinase (AURKA); Log[nM] 4.0): 30%
Aurora A % Activity Set2 (aurora A kinase (AURKA); Log[nM] 4.0): 33%
Aurora A % Activity Set3 (aurora A kinase (AURKA); Log[nM] 4.0): 27%
Aurora A % Activity Set1 (aurora A kinase (AURKA); Log[nM] 4.5): 14%
Aurora A % Activity Set2 (aurora A kinase (AURKA); Log[nM] 4.5): 14%
Aurora A % Activity Set3 (aurora A kinase (AURKA); Log[nM] 4.5): 13%
Aurora A % Activity Set1 (aurora A kinase (AURKA); Log[nM] 5.0): 8%
Aurora A % Activity Set2 (aurora A kinase (AURKA); Log[nM] 5.0): 6%
Aurora A % Activity Set3 (aurora A kinase (AURKA); Log[nM] 5.0): 4%
EGFR inhibition (in words) (EGFR): micromolar EGFR inhibition
Fold better for EGFR over AURKA (EGFR): 2 fold
Fold less potent than staurosporine against EGFR (EGFR): seven-fold
IC50 (EGFR; 10 µM ATP, triplicate, read-out: EGFR IC50 ± SD): 2.94 ± 0.0944 µM
IC50 (EGFR; 10 µM ATP/0.2 mg/ml Poly-Glu-Tyr, read-out: EGFR IC50 (dose-response curve, supplement)): 3 µM
EGFR % Activity Set1 (EGFR; Log[nM] 0): 98%
EGFR % Activity Set2 (EGFR; Log[nM] 0): 102%
EGFR % Activity Set3 (EGFR; Log[nM] 0): 105%
EGFR % Activity Set1 (EGFR; Log[nM] 1.0): 102%
EGFR % Activity Set2 (EGFR; Log[nM] 1.0): 110%
EGFR % Activity Set3 (EGFR; Log[nM] 1.0): 108%
EGFR % Activity Set1 (EGFR; Log[nM] 1.5): 105%
EGFR % Activity Set2 (EGFR; Log[nM] 1.5): 106%
EGFR % Activity Set3 (EGFR; Log[nM] 1.5): 108%
EGFR % Activity Set1 (EGFR; Log[nM] 2.0): 99%
EGFR % Activity Set2 (EGFR; Log[nM] 2.0): 102%
EGFR % Activity Set3 (EGFR; Log[nM] 2.0): 104%
EGFR % Activity Set1 (EGFR; Log[nM] 2.5): 96%
EGFR % Activity Set2 (EGFR; Log[nM] 2.5): 93%
EGFR % Activity Set3 (EGFR; Log[nM] 2.5): 97%
EGFR % Activity Set1 (EGFR; Log[nM] 3.0): 72%
EGFR % Activity Set2 (EGFR; Log[nM] 3.0): 79%
EGFR % Activity Set3 (EGFR; Log[nM] 3.0): 78%
EGFR % Activity Set1 (EGFR; Log[nM] 3.5): 43%
EGFR % Activity Set2 (EGFR; Log[nM] 3.5): 48%
EGFR % Activity Set3 (EGFR; Log[nM] 3.5): 43%
EGFR % Activity Set1 (EGFR; Log[nM] 4.0): 23%
EGFR % Activity Set2 (EGFR; Log[nM] 4.0): 24%
EGFR % Activity Set3 (EGFR; Log[nM] 4.0): 22%
EGFR % Activity Set1 (EGFR; Log[nM] 4.5): 8%
EGFR % Activity Set2 (EGFR; Log[nM] 4.5): 9%
EGFR % Activity Set3 (EGFR; Log[nM] 4.5): 8%
EGFR % Activity Set1 (EGFR; Log[nM] 5.0): 4%
EGFR % Activity Set2 (EGFR; Log[nM] 5.0): 4%
EGFR % Activity Set3 (EGFR; Log[nM] 5.0): 4%

CN[C@@H]1C[C@H]2O[C@@](C)([C@@H]1OC)n1c3ccccc3c3c4c(c5c6ccccc6n2c5c31)C(=O)NC4 [Staurosporine, staurosporine, reference compound]
Aurora A % Activity Set1 (aurora A kinase (AURKA); Log[nM] 0): 109%
Aurora A % Activity Set2 (aurora A kinase (AURKA); Log[nM] 0): 103%
Aurora A % Activity Set3 (aurora A kinase (AURKA); Log[nM] 0): 109%
Aurora A % Activity Set1 (aurora A kinase (AURKA); Log[nM] 1.0): 102%
Aurora A % Activity Set2 (aurora A kinase (AURKA); Log[nM] 1.0): 101%
Aurora A % Activity Set3 (aurora A kinase (AURKA); Log[nM] 1.0): 102%
Aurora A % Activity Set1 (aurora A kinase (AURKA); Log[nM] 1.5): 73%
Aurora A % Activity Set2 (aurora A kinase (AURKA); Log[nM] 1.5): 69%
Aurora A % Activity Set3 (aurora A kinase (AURKA); Log[nM] 1.5): 85%
Aurora A % Activity Set2 (aurora A kinase (AURKA); Log[nM] 2.0): 9%
Aurora A % Activity Set1 (aurora A kinase (AURKA); Log[nM] -0.5): 98%
Aurora A % Activity Set2 (aurora A kinase (AURKA); Log[nM] -0.5): 100%
Aurora A % Activity Set3 (aurora A kinase (AURKA); Log[nM] -0.5): 102%
Aurora A % Activity Set1 (aurora A kinase (AURKA); Log[nM] -1.0): 100%
Aurora A % Activity Set2 (aurora A kinase (AURKA); Log[nM] -1.0): 93%
Aurora A % Activity Set3 (aurora A kinase (AURKA); Log[nM] -1.0): 102%
